In patent US20250290928A1, “METHOD, KIT AND DEVICE FOR DETECTING EXTRACELLULAR VESICLES” (priority 2022, published 2025):
No end group written: not given here. *: point of attachment. 5FAM = O=C1OC2(c3ccc(O)cc3Oc3cc(O)ccc32)c2ccc(C(=O)*)cc21; TQ2 = quencher; TQ3 = quencher

Assays:
[1] = test system: MMP14 in the HT1080 culture supernatants and the culture medium samples; test: Evaluation of MMP14 activity of HT1080 culture supernatants, culture media and recovered liquids (exoEasy, qEV) with 96-well plate; format: biochemical, Human; settings: for Fluorescence change: after 2 hours; for change in fluorescence intensity after 2 hours: reporter 2.5 μM, 30° C.
Method: The MMP14 activity was evaluated with a 96-well plate (manufactured by Thermo Fisher Scientific Inc., model number: 137101). […] For measurement wavelengths, an excitation wavelength of 485±20 nm and a fluorescence wavelength of 528±20 nm were used.
Human fibrosarcoma HT1080 cells (KAC Co., Ltd.) were cultured in three kinds of cell culture media described later. In addition, 100 mm cell culture Dish (Nunclon Delta Surface) (manufactured by Thermo Fisher Scientific Inc.) was used as a cell culture container.
Each of the culture supernatants was recovered from each of the dishes in a centrifuge tube, and centrifuged at 2,000×g for 10 minutes at 4° C. Each of the supernatants after the centrifugation was recovered in a fresh container with a small amount of the culture medium remaining so as not to incorporate the precipitated cells. Each of the culture supernatants was filtered through a syringe with a 0.22 μm filter (manufactured by Merck KGaA) so that contaminants such as cell fragments were removed. After that, the filtrate was recovered in a fresh container, and stored at 4° C.
From each of the HT1080 culture supernatants described in the section “(Recovery of Culture Supernatant)”, 100 μL of each of the supernatants after centrifugation and 100 μL of each of the supernatants after filtration through a 0.22 μm filter were each aliquoted, and the buffer (4) was added to the aliquots to provide 1 mL of solutions. The concentration of each of the solutions is 1/10 of the concentration of each of the HT1080 culture supernatants.
In addition, for detection of MMP14 activity, 1 mM Custom #1 was diluted with the buffer (4) to prepare a 5 μM MMP14 detection solution.
50 μL of the MMP14 detection solution was added to 50 μL of each of the samples, a reaction was performed at 30° C., and MMP14 activity was evaluated.
Extracellular vesicles were recovered from 3 mL of each of the recovered culture supernatants with exoEasy Maxi Kit. In this case, the recovery was performed according to the protocol included in the kit. From 3 mL of each of the culture supernatants, 450 μL of each of recovered liquids was obtained. Each of the recovered liquids has a concentration 6.67 times the original concentration of each of the culture supernatants. Each of the recovered liquids was diluted 66.7-fold to prepare 100 μL of a sample at 1/10 of the original concentration of each of the culture supernatants.
Extracellular vesicles were recovered from 3 mL of each of the recovered culture supernatants with qEV. In this case, the recovery was performed according to the protocol included in the kit. From 3 mL of each of the culture supernatants, 700 μL of each of fraction recovered liquids in series was obtained. Each of the recovered liquids was used as a sample as it was.

[2] = test system: MMP in the MDA-MB-231-derived extracellular vesicles; test: Evaluation of MMP activity of MDA-MB-231-derived extracellular vesicles with 96-well plate (SensoLyte 520 MMP Substrate Sampler Kit); format: biochemical, Human; settings: MP, EV 3.3 μg/mL
Method: 50 μL of the MMP detection solution was added to 50 μL of each of the samples, a reaction was performed at 30° C., and MMP activity was evaluated.
50 μL of each of the MMP detection solutions was added to 50 μL of each of the samples, a reaction was performed at 30° C., and MMP activity was evaluated.

“[5-FAM]GRIGFLRTAK(TQ2)[OH] (5FAM-GRIGFLRTAK(TQ2)-OH) [Custom #1]” was tested, and the Fluorescence change ([1]; Culture medium Exo-FBS, HT1080 culture Absent, None (VI)) was 50,117 ΔRFU, the Fluorescence change ([1]; Culture medium Exo-FBS, HT1080 culture Present, Centrifugation + filtration (V)) was 45,429 ΔRFU and the Fluorescence change ([1]; Culture medium Exo-FBS, HT1080 culture Present, Only centrifugation (IV)) was 46,172 ΔRFU. The Fluorescence change ([1]; Culture medium FBS, HT1080 culture Absent, None (III)) was 66,945 ΔRFU, the Fluorescence change ([1]; Culture medium FBS, HT1080 culture Present, Centrifugation + filtration (II)) was 65,200 ΔRFU and the Fluorescence change ([1]; Culture medium FBS, HT1080 culture Present, Only centrifugation (I)) was 64,773 ΔRFU. For the same substance, the Fluorescence change ([1]; Culture medium MEM (×10, supernatant without dilution), HT1080 culture Present, Centrifugation + filtration) was 1,515 ΔRFU, the Fluorescence change ([1]; Culture medium MEM (×10, supernatant without dilution), HT1080 culture Present, Only centrifugation) was 2,494 ΔRFU and the Fluorescence change ([1]; Culture medium MEM, HT1080 culture Absent, None (IX)) was −311 ΔRFU. The Fluorescence change ([1]; Culture medium MEM, HT1080 culture Present, Centrifugation + filtration (VIII)) was 186 ΔRFU, the Fluorescence change ([1]; Culture medium MEM, HT1080 culture Present, Only centrifugation (VII)) was −240 ΔRFU and the “change in fluorescence intensity after 2 hours” value ([1]; Example 56, exoEasy recovered liquid from the Exo-FBS) was “the fluorescence intensity was changed”. For the same substance, the “change in fluorescence intensity after 2 hours” value ([1]; Example 56, exoEasy recovered liquid from the MEM) was “no change in fluorescence intensity was recognized”, the Fluorescence change ([1]; exoEasy recovered liquid, Culture medium Exo-FBS, HT1080 culture Present) was 6,663 ΔRFU and the Fluorescence change ([1]; exoEasy recovered liquid, Culture medium MEM, HT1080 culture Present) was −313 ΔRFU. The Fluorescence change ([1]; qEV recovered liquid, Exo-FBS, HT1080 culture Present, Fraction # 1) was 336 ΔRFU, the Fluorescence change ([1]; qEV recovered liquid, Exo-FBS, HT1080 culture Present, Fraction # 2) was 318 ΔRFU and the Fluorescence change ([1]; qEV recovered liquid, Exo-FBS, HT1080 culture Present, Fraction # 3) was 271 ΔRFU. The Fluorescence change ([1]; qEV recovered liquid, Exo-FBS, HT1080 culture Present, Fraction # 4) was 285 ΔRFU, the Fluorescence change ([1]; qEV recovered liquid, Exo-FBS, HT1080 culture Present, Fraction # 5) was 302 ΔRFU and the Fluorescence change ([1]; qEV recovered liquid, Exo-FBS, HT1080 culture Present, Fraction # 6) was 325 ΔRFU. The Fluorescence change ([1]; qEV recovered liquid, Exo-FBS, HT1080 culture Present, Fraction # 7) was 1,869 ΔRFU, the Fluorescence change ([1]; qEV recovered liquid, Exo-FBS, HT1080 culture Present, Fraction # 8) was 7,249 ΔRFU and the Fluorescence change ([1]; qEV recovered liquid, Exo-FBS, HT1080 culture Present, Fraction # 9) was 9,417 ΔRFU. The Fluorescence change ([1]; qEV recovered liquid, Exo-FBS, HT1080 culture Present, Fraction # 10) was 17,731 ΔRFU, the Fluorescence change ([1]; qEV recovered liquid, Exo-FBS, HT1080 culture Present, Fraction # 11) was 30,226 ΔRFU and the Fluorescence change ([1]; qEV recovered liquid, Exo-FBS, HT1080 culture Present, Fraction # 12) was 44,826 ΔRFU. For the same substance, the Fluorescence change ([1]; qEV recovered liquid, Exo-FBS, HT1080 culture Present, Fraction # 13) was 61,704 ΔRFU, the Fluorescence change ([1]; qEV recovered liquid, Exo-FBS, HT1080 culture Present, Fraction # 14) was 76,810 ΔRFU and the Fluorescence change ([1]; qEV recovered liquid, MEM, HT1080 culture Present, Fraction # 1) was 245 ΔRFU. For the same substance, the Fluorescence change ([1]; qEV recovered liquid, MEM, HT1080 culture Present, Fraction # 2) was 285 ΔRFU, the Fluorescence change ([1]; qEV recovered liquid, MEM, HT1080 culture Present, Fraction # 3) was 245 ΔRFU and the Fluorescence change ([1]; qEV recovered liquid, MEM, HT1080 culture Present, Fraction # 4) was 304 ΔRFU. For the same substance, the Fluorescence change ([1]; qEV recovered liquid, MEM, HT1080 culture Present, Fraction # 5) was 1,450 ΔRFU, the Fluorescence change ([1]; qEV recovered liquid, MEM, HT1080 culture Present, Fraction # 6) was 697 ΔRFU and the Fluorescence change ([1]; qEV recovered liquid, MEM, HT1080 culture Present, Fraction # 7) was 10,198 ΔRFU. The Fluorescence change ([1]; qEV recovered liquid, MEM, HT1080 culture Present, Fraction # 8) was 11,966 ΔRFU, the Fluorescence change ([1]; qEV recovered liquid, MEM, HT1080 culture Present, Fraction # 9) was 1,424 ΔRFU and the Fluorescence change ([1]; qEV recovered liquid, MEM, HT1080 culture Present, Fraction # 10) was 550 ΔRFU. For the same substance, the Fluorescence change ([1]; qEV recovered liquid, MEM, HT1080 culture Present, Fraction # 11) was 506 ΔRFU, the Fluorescence change ([1]; qEV recovered liquid, MEM, HT1080 culture Present, Fraction # 12) was 536 ΔRFU and the Fluorescence change ([1]; qEV recovered liquid, MEM, HT1080 culture Present, Fraction # 13) was 489 ΔRFU. The Fluorescence change ([1]; qEV recovered liquid, MEM, HT1080 culture Present, Fraction # 14) was 446 ΔRFU.
For “TAMRA-GGPLGLAGGK(TQ3) ({TAMRA}-GGPLGLAGGK(TQ3)) [Custom #2T]”, the “Fluorescence change after 2 hours of reaction at 30° C.” value (from here on “Fluorescence change after 2 hours”) ([2]; 1.25 μM Custom #2T with 1.25 μM SB2) was 1,319 ΔRFU, the “Fluorescence change after 2 hours” value ([2]; 1.25 μM Custom #2T with 1.25 μM SB6) was 1,527 ΔRFU and the “Fluorescence change after 2 hours” value ([2]; 1.25 μM Custom #2T with 1.25 μM SB7) was 626 ΔRFU. For the same substance, the “Fluorescence change after 2 hours” value ([2]; 1.25 μM Custom #2T with 1.25 μM SB9) was 469 ΔRFU, the “Fluorescence change after 2 hours” value ([2]; 1.25 μM Custom #2T with 1.25 μM SB10) was 1,030 ΔRFU and the “Fluorescence change after 2 hours” value ([2]; 5 μM Custom #2T with 5 μM SB2) was 710 ΔRFU. The “Fluorescence change after 2 hours” value ([2]; 5 μM Custom #2T with 5 μM SB6) was 1,161 ΔRFU, the “Fluorescence change after 2 hours” value ([2]; 5 μM Custom #2T with 5 μM SB7) was 288 ΔRFU and the “Fluorescence change after 2 hours” value ([2]; 5 μM Custom #2T with 5 μM SB9) was 153 ΔRFU. For the same substance, the “Fluorescence change after 2 hours” value ([2]; 5 μM Custom #2T with 5 μM SB10) was 592 ΔRFU.
